Source: PubChem BioAssay AID248 (DTP/NCI, 2004)
Several values for one entry are separate records, joined by “and”; a condition that tells them apart may be missing. Identical values can stand only once. Inconclusive results and toxic doses are left out. Rule as the data show it: active = T/C of 150% or more; inactive = T/C below 125%.

Tested on: L1210 leukemia ip in BDF1 mice, survival T/C
Assay: NCI In Vivo Anticancer Drug Screen. Data for tumor model L1210 Leukemia (intraperitoneal) in B6D2F1 (BDF1) mice
Conditions: endpoint: mean survival time, higher = longer survival
Outline: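 Tumor cells were implanted, animals were treated, and survival was followed. The result divides the treated measurement by the vehicle-control measurement.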

[1] = dose: 25.0 mg/kg/injection, schedule: Q04DX003 (ip), vehicle: other
[2] = dose: 50.0 mg/kg/injection, schedule: Q04DX003 (ip), vehicle: other
[3] = dose: 100.0 mg/kg/injection, schedule: Q04DX003 (ip), vehicle: other
[4] = dose: 12.5 mg/kg/injection, schedule: Q01DX009 (ip), vehicle: other
[5] = dose: 25.0 mg/kg/injection, schedule: Q01DX009 (ip), vehicle: other
[6] = dose: 100.0 mg/kg/injection, schedule: Q04DX003 (ip), vehicle: Klucel (hydroxypropylcellulose) (HPC)
[7] = dose: 200.0 mg/kg/injection, schedule: Q04DX003 (ip), vehicle: Klucel (hydroxypropylcellulose) (HPC)
[8] = dose: 400.0 mg/kg/injection, schedule: Q04DX003 (ip), vehicle: Klucel (hydroxypropylcellulose) (HPC)
[9] = dose: 100.0 mg/kg/injection, schedule: Q01DX001 (ip), vehicle: Klucel (hydroxypropylcellulose) (HPC)
[10] = dose: 200.0 mg/kg/injection, schedule: Q01DX001 (ip), vehicle: Klucel (hydroxypropylcellulose) (HPC)
[11] = dose: 100.0 mg/kg/injection, schedule: Q01DX001 (ip), vehicle: saline
[12] = dose: 200.0 mg/kg/injection, schedule: Q01DX001 (ip), vehicle: saline
[13] = dose: 100.0 mg/kg/injection, schedule: Q01DX009 (ip), vehicle: saline with Tween-80
[14] = dose: 100.0 mg/kg/injection, schedule: Q04DX003 (ip), vehicle: saline with Tween-80
[15] = dose: 400.0 mg/kg/injection, schedule: Q04DX003 (ip), vehicle: saline with Tween-80

Measured: T/C

CC#CC#Cc1cccc(=O)o1
inactive: [1] 90 % of control | [2] 90 % of control | [3] 108 % of control

CN(CCO)N=Nc1ccccc1C#N
inactive: [4] 103 % of control | [5] 91 % of control | [1] 95 % of control | [2] 93 % of control | [3] 95 % of control | dose: 200.0 mg/kg/injection, schedule: Q04DX003 (ip), vehicle: other 98 % of control | dose: 400.0 mg/kg/injection, schedule: Q04DX003 (ip), vehicle: other 98 % of control

Oc1c(Cl)cc(C(c2cc(Cl)c(O)c(Cl)c2)c2ccccn2)cc1Cl
inactive: [6] 100 % of control | [7] 104 % of control | [8] 93 % of control

CC12CCC3c4ccc(O)c(N)c4CCC3C1CCC2=O (stereo unspecified)
inactive: [9] 102 % of control | [10] 102 % of control | dose: 400.0 mg/kg/injection, schedule: Q01DX001 (ip), vehicle: Klucel (hydroxypropylcellulose) (HPC) 101 % of control

O=C1CCC(Cc2ccccc2)N1 (stereo unspecified)
inactive: dose: 100.0 mg/kg/injection, schedule: Q04DX002 (ip), vehicle: saline with Tween-80 97 % of control | dose: 200.0 mg/kg/injection, schedule: Q04DX002 (ip), vehicle: saline with Tween-80 102 % of control | dose: 400.0 mg/kg/injection, schedule: Q04DX002 (ip), vehicle: saline with Tween-80 97 % of control

CN1C2CCC(O)C1CC2 (stereo unspecified)
inactive: [11] 102 % of control | [12] 102 % of control

O=c1ccc(=O)n(-c2ccccc2)[nH]1
inactive: dose: 100.0 mg/kg/injection, schedule: Q01DX009 (ip), vehicle: Klucel (hydroxypropylcellulose) (HPC) 95 % of control | [6] 92 % of control | dose: 200.0 mg/kg/injection, schedule: Q01DX009 (ip), vehicle: Klucel (hydroxypropylcellulose) (HPC) 93 % of control | [7] 106 % of control | dose: 267.0 mg/kg/injection, schedule: Q04DX003 (ip), vehicle: Klucel (hydroxypropylcellulose) (HPC) 110 % of control | dose: 400.0 mg/kg/injection, schedule: Q01DX009 (ip), vehicle: Klucel (hydroxypropylcellulose) (HPC) 95 % of control | [8] 104 % of control | dose: 600.0 mg/kg/injection, schedule: Q04DX003 (ip), vehicle: Klucel (hydroxypropylcellulose) (HPC) 105 % of control

COc1cccc(C(Cc2ccc(N3C(N)=NC(N)=NC3(C)C)cc2)C(=O)Nc2ccc(S(=O)(=O)F)cc2)c1 (stereo unspecified)
inactive: dose: 50.0 mg/kg/injection, schedule: Q01DX001 (ip), vehicle: Klucel (hydroxypropylcellulose) (HPC) 99 % of control | [9] 99 % of control | [10] 96 % of control

O=c1[nH]c(=O)c2nc3cc(Br)cnc3nc2[nH]1
inactive: dose: 100.0 mg/kg/injection, schedule: Q04DX003 (ip), vehicle: saline 95 % of control | dose: 200.0 mg/kg/injection, schedule: Q04DX003 (ip), vehicle: saline 102 % of control | dose: 400.0 mg/kg/injection, schedule: Q04DX003 (ip), vehicle: saline 103 % of control

COC(=O)c1c(C(=O)OC)c2c(-c3ccccc3)cc3cccc1n32
inactive: [6] 94 % of control | [7] 102 % of control | [8] 94 % of control

O=C(NCCCCCCNC(=O)Nc1ccc(C2=NCCCN2)cc1)Nc1ccc(C2=NCCCN2)cc1
inactive: dose: 6.25 mg/kg/injection, schedule: Q01DX Z (ip), vehicle: carboxymethylcellulose (CMC) 97 % of control | dose: 12.5 mg/kg/injection, schedule: Q01DX Z (ip), vehicle: carboxymethylcellulose (CMC) 97 % of control | dose: 25.0 mg/kg/injection, schedule: Q01DX Z (ip), vehicle: carboxymethylcellulose (CMC) 100 % of control

OC(c1ccccc1)(c1ccccc1)C1C(Cc2ccccc2)C1Cc1ccccc1 (stereo unspecified)
inactive: dose: 100.0 mg/kg/injection, schedule: Q01DX001 (ip), vehicle: steriod suspending solution 110 % of control | dose: 200.0 mg/kg/injection, schedule: Q01DX001 (ip), vehicle: steriod suspending solution 112 % of control | dose: 400.0 mg/kg/injection, schedule: Q01DX001 (ip), vehicle: steriod suspending solution 104 % of control

FC(F)(F)c1nc2nc(Cl)c(Cl)nc2s1
inactive: dose: 0.5 mg/kg/injection, schedule: Q01DX009 (ip), vehicle: other 116 % of control | dose: 1.0 mg/kg/injection, schedule: Q01DX009 (ip), vehicle: other 106 % of control | dose: 2.0 mg/kg/injection, schedule: Q01DX009 (ip), vehicle: other 101 % of control | dose: 3.12 mg/kg/injection, schedule: Q01DX009 (ip), vehicle: other 114 % of control | dose: 4.0 mg/kg/injection, schedule: Q01DX009 (ip), vehicle: other 107 % of control | dose: 6.25 mg/kg/injection, schedule: Q01DX009 (ip), vehicle: other 103 % of control | [4] 103 % of control | [5] 101 % of control and 103 % of control

COc1cc(/C=C(\C#N)c2cccc3ccccc23)cc(OC)c1OC
inactive: [6] 107 % of control | [7] 103 % of control | [8] 94 % of control

CCNC(=O)Nc1ccc(N(CC)CC)cc1
inactive: [13] 93 % of control | [14] 103 % of control | dose: 200.0 mg/kg/injection, schedule: Q01DX009 (ip), vehicle: saline with Tween-80 87 % of control | dose: 200.0 mg/kg/injection, schedule: Q04DX003 (ip), vehicle: saline with Tween-80 96 % of control | dose: 400.0 mg/kg/injection, schedule: Q01DX009 (ip), vehicle: saline with Tween-80 98 % of control | [15] 96 % of control

C[C@]12CCC(=O)C=C1CC[C@@H]1[C@@H]2[C@@H](O)C[C@@]2(C)[C@H]1CC[C@]2(O)C(=O)COC(=O)CCC(=O)O
inactive: dose: 50.0 mg/kg/injection, schedule: Q01DX001 (sc), vehicle: steriod suspending solution 107 % of control | dose: 100.0 mg/kg/injection, schedule: Q01DX001 (sc), vehicle: steriod suspending solution 104 % of control | dose: 100.0 mg/kg/injection, schedule: Q01DX009 (ip), vehicle: steriod suspending solution 108 % of control | dose: 100.0 mg/kg/injection, schedule: Q04DX003 (sc), vehicle: steriod suspending solution 100 % of control | dose: 200.0 mg/kg/injection, schedule: Q01DX001 (sc), vehicle: steriod suspending solution 105 % of control | dose: 200.0 mg/kg/injection, schedule: Q01DX009 (ip), vehicle: steriod suspending solution 101 % of control | dose: 200.0 mg/kg/injection, schedule: Q04DX003 (sc), vehicle: steriod suspending solution 96 % of control | dose: 400.0 mg/kg/injection, schedule: Q01DX001 (sc), vehicle: steriod suspending solution 94 % of control | dose: 400.0 mg/kg/injection, schedule: Q01DX009 (ip), vehicle: steriod suspending solution 103 % of control | dose: 400.0 mg/kg/injection, schedule: Q04DX003 (sc), vehicle: steriod suspending solution 102 % of control

CC(C)C(CN)(CCCCN1CCCCC1)c1cccc2ccccc12 (stereo unspecified)
inactive: [14] 95 % of control

NC(N)=N/N=C\c1ccc2ccccc2c1
inactive: [14] 100 % of control | [15] 88 % of control

O=C(Nc1ccccc1)OC1CCC2CC21 (stereo unspecified)
inactive: dose: 50.0 mg/kg/injection, schedule: Q01DX009 (ip), vehicle: saline with Tween-80 91 % of control | [13] 87 % of control

COc1ccc(Cc2ccc(OC)c(OC)c2)cc1OC
inactive: dose: 200.0 mg/kg/injection, schedule: Q04DX003 (ip), vehicle: acetone 124 % of control | dose: 400.0 mg/kg/injection, schedule: Q04DX003 (ip), vehicle: acetone 100 % of control

CN(C1=CC(=O)C(N(C)C2CCCCC2)=CC1=O)C1CCCCC1
inactive: dose: 7.5 mg/kg/injection, schedule: Q01DX009 (ip), vehicle: saline 90 % of control | dose: 15.0 mg/kg/injection, schedule: Q01DX009 (ip), vehicle: saline 93 % of control

CNc1nc2ccccc2n1C1OC(CO)C(O)C1O (stereo unspecified)
inactive: [11] 95 % of control | [12] 98 % of control | dose: 400.0 mg/kg/injection, schedule: Q01DX001 (ip), vehicle: saline 98 % of control

Brc1csnn1
inactive: dose: 50.0 mg/kg/injection, schedule: Q01DX001 (ip), vehicle: carboxymethylcellulose (CMC) 98 % of control | dose: 100.0 mg/kg/injection, schedule: Q01DX001 (ip), vehicle: carboxymethylcellulose (CMC) 110 % of control | dose: 200.0 mg/kg/injection, schedule: Q01DX001 (ip), vehicle: carboxymethylcellulose (CMC) 95 % of control
